Measurements from patent publication US8853228B2, “Heterocyclic analogs of propargyl-linked inhibitors of dihydrofolate reductase” (University of Connecticut, priority 2011, dated 2014).
In brackets after ≈: the same amount, converted by molar mass. Where two headings read alike, the source gives them in different places.

Experiments:
[1] = test system: S. aureus 13709 (MRSA); test: Antibacterial MIC, broth microdilution with Alamar Blue; type: cell-based, Staphylococcus aureus; details: for Selectivity MRSA: IC50 (MCF10)/MIC (pathogen); for MIC MRSA: Table 6
Description: (§1) For susceptibility testing, 10 μL of glycerol stock was suspended in a 10 mL shake flask culture of chemically defined Isosensitest broth (Oxoid) supplemented with 2% w/v glucose. A sample of the shake flask culture was diluted to 1×10^6 cells/mL in media and added to 96-well test plates (100 μL per well) containing test compounds dispensed in DMSO (2 μL). After an incubation period (30° C.) determined from the strain specific doubling time, a 0.03% w/v aqueous solution of resazurin (10 μL) was added and the plates were allowed to incubate; each well was then scored for dye reduction.

[2] = target: hDHFR (Homo sapiens (Human), UniProt P00374); test: hDHFR enzyme inhibition assay; type: biochemical
Description: hDHFR: The gene for hDHFR was amplified using PCR from cDNA obtained from ATCC. The gene was inserted in a pET41 vector with a C-terminal histidine tag for affinity chromatography. The resulting construct was verified by sequencing. The hDHFR protein was expressed in E. coli and purified using a nickel affinity column.
(§2) Enzyme and inhibitor were allowed to incubate for 5 min before adding dihydrofolate to initiate the reaction. Enzyme assays were performed at least four times. IC50 values and their standard deviations were calculated in the presence of varying concentrations of inhibitor near the IC50 concentration.
(§3) Enzyme inhibition assays were performed by monitoring the rate of NADPH oxidation by the DHFR enzyme at an absorbance of 340 nm. Assays were performed in the presence of saturating concentrations of NADPH and initiated with dihydrofolate. All assays were completed at 25° C. in a buffer containing 20 mM TES pH 7.0, 50 mM KCl, 10 mM 2-mercaptoethanol, 0.5 mM EDTA and 1 mg/mL BSA. Inhibition was measured at least three times with inhibitor concentrations near the IC50 value and the average IC50 value is reported with a standard deviation.

[3] = target: S. pyogenes DHFR (Streptococcus pyogenes, UniProt Q9A091); test: S. pyogenes DHFR enzyme inhibition assay; type: biochemical; details: for Selectivity (h/Sp): IC50 (human)/IC50 (pathogen); for IC50: average of at least three measurements
Description: as §3

[4] = test system: MCF-10 cells; test: Mammalian cell toxicity, MCF-10; type: cell-based, human; details: cytotoxicity
Description: (§4) Adherent cell lines were maintained in Eagle's Minimal Essential Media (Sigma-Aldrich, St. Louis, Mo., USA) with 2 mM glutamine and Earle's Balanced Salt Solution (HyClone, Logan, Utah, USA) adjusted to contain 1.5 g/L sodium bicarbonate, 0.1 mM non-essential amino acids, 1 mM sodium pyruvate and 10% fetal calf serum. Fetal calf serum used in these assays was lot matched throughout. […] Toxicity assays were conducted between passages 10-20. Target compound toxicity was measured by incubating the test compound with the cells for 4 h, washing the cells and finally treating the cells with Alamar Blue. After 12-24 h, the fluorescence of the reduced dye was measured. Fluorescence intensity as a function of test compound concentration was fit to the Fermi equation, using non-linear least squares regression analysis, to estimate IC50 values.

[5] = test system: Streptococcus pyogenes; test: Antibacterial MIC, broth microdilution with Alamar Blue; type: cell-based; details: for Selectivity S. pyogenes: IC50 (MCF10)/MIC (pathogen); for MIC S. pyogenes: Table 6
Description: as §1

[6] = test system: HepG2 cells; test: Mammalian cell toxicity, HepG2; type: cell-based; details: cytotoxicity
Description: as §4

[7] = target: S. aureus DHFR (Staphylococcus aureus, UniProt P0A017); type: biochemical; details: for Selectivity (h/Sa): IC50 (human)/IC50 (pathogen); for IC50: average of at least three measurements
Description: as §3

[8] = test system: C. glabrata; test: Antifungal assay (MIC, Alamar Blue); type: cell-based, Candida glabrata; details: for MIC (Cg): C. glabrata, YM media; for MIC C. glabrata: IsoSensitest media supplemented with 2% glucose (thymidine-depleted); for antifungal MIC C. glabrata: cell growth inhibition (Table 7 conditions)
Description: Antifungal assays were performed using C. glabrata as a suspension in 50% glycerol at −78° C. For susceptibility testing, a streak of stock culture was made on SDA agar and grown at 30° C. for 48 h. One pure colony of the test organism was recovered from the plate, suspended in appropriate media and grown in a 5 mL shake flask culture. A sample of the shake flask culture was diluted to 1×10^5 cells/mL in media and added to 96-well test plates (100 μL per well) containing test compounds dispensed in DMSO (1 μL). Amphotericin and ketoconazole were used as controls. After an incubation period determined from the strain specific doubling time, Alamar Blue (10 μL) was added, allowed to incubate; each well was scored for dye reduction.
Several representative compounds were also evaluated in thymidine-depleted media. It has been shown that high levels of thymidine interfere with accurate susceptibility testing of antifolates. To compensate for this, antifolates are frequently evaluated in a controlled minimal media with a low thymidine concentration. […] In addition, the compounds were also evaluated for mammalian cell toxicity using MCF-10 and HepG2 cell lines. Cellular selectivity is reported as the IC50 value for the MCF-10 human cell line divided by the MIC value (μg/mL) (Table 8).

[9] = target: CgDHFR (Candida glabrata (strain ATCC 2001 / BCRC 20586 / JCM 3761 / NBRC 0622 / NRRL Y-65 / CBS 138) (Yeast) (Nakaseomyces glabratus), UniProt Q6FPH0); test: biochemical; details: for IC50: Table 7, read-out: IC50 (CgDHFR)
From the text: CgDHFR: The gene coding CgDHFR was amplified by PCR from C. glabrata genomic DNA obtained from ATCC. The gene was inserted in a pET41 vector that includes a C-terminal histidine tag for nickel affinity chromatography. E. coli cells were transformed and the resulting plasmid was verified by sequencing. The protein was expressed in E. coli BL21(DE3) cells with isopropyl β-D-thiogalactoside induction. Following growth, the cells were lysed with BugBuster (Novagen) and centrifuged; the supernatant was loaded on a Ni-NTA column. The column was washed with 20 mM Tris (pH 8.0)/0.4 M NaCl and the protein was eluted using a gradient of 20 mM Tris (pH 8.0), 0.3 M NaCl, 20% glycerol, 0.1 mM EDTA, 2 mM DTT, 250 mM imidazole. Fractions containing CgDHFR were identified by SDS-PAGE, combined and desalted using a PD-10 column with a buffer containing 20 mM Tris pH 8.0, 20% glycerol, 0.1 mM EDTA and 2 mM DTT. The protein was concentrated to 13 mg/mL.
as §2

[10] = target: TgDHFR (Toxoplasma gondii, UniProt Q07422, DEL43-70); test: TgDHFR enzyme inhibition assay; type: biochemical
Description: These residues were removed, leaving a five residue loop region characteristic of several other species of DHFR.
as §2

[11] = target: ChDHFR-TS (Cryptosporidium hominis, UniProt Q27552); test: ChDHFR enzyme inhibition assay; type: biochemical; details: IC50 against ChDHFR
Description: as §2
Compounds were evaluated in spectrophotometric enzyme assays using ChDHFR-TS and hDHFR. Inhibition constants (IC50) were measured (see Table 4). […] The compound abbreviations in Table 4 refer to the following compounds: […]

[12] = Table 5, average of at least three measurements, read-out: IC50 human
[13] = Table 7, read-out: IC50 (hDHFR)

Sequence of hDHFR (P00374 whole entry): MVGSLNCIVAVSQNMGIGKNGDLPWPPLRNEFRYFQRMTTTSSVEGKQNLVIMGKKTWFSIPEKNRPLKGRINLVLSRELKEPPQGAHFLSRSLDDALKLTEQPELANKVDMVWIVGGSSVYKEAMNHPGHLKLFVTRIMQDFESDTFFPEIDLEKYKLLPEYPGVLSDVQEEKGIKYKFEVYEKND
Sequence of CgDHFR (Q6FPH0 1-217): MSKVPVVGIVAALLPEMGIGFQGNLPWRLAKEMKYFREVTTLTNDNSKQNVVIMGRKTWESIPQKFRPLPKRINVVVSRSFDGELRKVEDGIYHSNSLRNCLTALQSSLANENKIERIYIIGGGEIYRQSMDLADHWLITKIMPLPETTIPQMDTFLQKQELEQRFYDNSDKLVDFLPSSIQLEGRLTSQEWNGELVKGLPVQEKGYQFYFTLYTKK
Sequence of S. pyogenes DHFR (Q9A091 1-165): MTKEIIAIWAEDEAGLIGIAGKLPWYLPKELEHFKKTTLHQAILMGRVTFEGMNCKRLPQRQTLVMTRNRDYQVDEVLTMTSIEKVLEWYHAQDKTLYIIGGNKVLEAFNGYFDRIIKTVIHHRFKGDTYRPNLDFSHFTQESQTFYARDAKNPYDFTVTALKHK
Sequence of ChDHFR-TS (Q27552 1-521): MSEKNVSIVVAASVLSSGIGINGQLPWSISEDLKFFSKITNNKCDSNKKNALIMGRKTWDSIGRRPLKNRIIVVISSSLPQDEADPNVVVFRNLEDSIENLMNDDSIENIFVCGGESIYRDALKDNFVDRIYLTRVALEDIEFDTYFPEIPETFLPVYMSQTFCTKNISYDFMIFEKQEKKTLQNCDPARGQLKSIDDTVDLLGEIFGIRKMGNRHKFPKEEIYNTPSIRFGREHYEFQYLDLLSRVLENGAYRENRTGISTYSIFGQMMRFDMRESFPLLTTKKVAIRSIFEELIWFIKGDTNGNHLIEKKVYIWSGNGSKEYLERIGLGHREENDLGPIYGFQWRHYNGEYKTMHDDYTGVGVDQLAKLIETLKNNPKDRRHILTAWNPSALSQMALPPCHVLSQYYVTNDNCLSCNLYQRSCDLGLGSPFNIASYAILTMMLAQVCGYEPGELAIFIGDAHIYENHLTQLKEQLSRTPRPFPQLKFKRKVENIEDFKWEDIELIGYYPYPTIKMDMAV
Sequence of TgDHFR (Q07422 71-250, added parts left off, stated change not applied): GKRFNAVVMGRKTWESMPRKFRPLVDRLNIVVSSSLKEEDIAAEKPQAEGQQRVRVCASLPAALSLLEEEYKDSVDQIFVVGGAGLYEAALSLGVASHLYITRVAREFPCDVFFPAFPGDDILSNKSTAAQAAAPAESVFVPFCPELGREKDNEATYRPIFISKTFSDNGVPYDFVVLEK

SMILES	Selectivity MRSA [1]	MIC MRSA [1] [µg/mL]	IC50 [2, 12] [nM]	Selectivity (h/Sp) [3]	IC50 [3] [nM]	IC50 ([4]; Table 6) [µM]	Selectivity S. pyogenes [5]	MIC S. pyogenes [5] [µg/mL]	IC50 ([6]; Table 6) [µM]	Selectivity (h/Sa) [7]	IC50 [7] [nM]	further results
CCc1nc(N)nc(N)c1C#CCc1cccc(-c2ccncc2)c1 [Compound 151]	11,585	0.041 (≈ 0.124 µM)	520 ± 23	17	30 ± 1.7	475	11,875	0.04 (≈ 0.121 µM)	> 500	26	20 ± 0.5	–
CCc1nc(N)nc(N)c1C#CC(C)c1cc(OC)cc(-c2ccncc2)c1 (stereo not shown) [Compound 148]	–	0.09 (≈ 0.241 µM)	1300 ± 11	–	180 ± 19	85	–	0.012 (≈ 0.0321 µM)	171	–	19 ± 1	MIC (Cg) [8]: 1.5 µg/mL (≈ 4.02 µM); MIC C. glabrata [8]: 0.36 µg/mL (≈ 0.964 µM); antifungal MIC C. glabrata [8]: 1.4 to 1.5 µg/mL; IC50 [2, 13]: 1300 ± 11 nM; IC50 [9]: 89 ± 8 nM; IC50 ([4]; Table 8): 85 µM; IC50 ([6]; Table 8): 171 µM
CCc1nc(N)nc(N)c1C#CCc1cc(OC)cc(-c2ccncc2)c1 [Compound 150]	9,089	0.045 (≈ 0.125 µM)	61 ± 5.7	2	28 ± 4	409	10,225	0.04 (≈ 0.111 µM)	465	5	12 ± 2.4	–
COc1cc(-c2ccncc2)cc(C(C)C#Cc2c(C)nc(N)nc2N)c1 (stereo not shown) [Compound 147]	–	0.09 (≈ 0.25 µM)	1500 ± 8	–	160 ± 9	220	–	0.012 (≈ 0.0334 µM)	233	–	26 ± 2	MIC (Cg) [8]: 1.4 µg/mL (≈ 3.9 µM); antifungal MIC C. glabrata [8]: 1.4 to 1.5 µg/mL; IC50 [2, 13]: 1500 ± 83 nM; IC50 [9]: 97 ± 9 nM
CCc1nc(N)nc(N)c1C#CC(C)c1cc(-c2ccccc2)ccc1OC (stereo not shown) [Compound 146]	72	0.744 (≈ 2 µM)	100 ± 10	4	26 ± 2.5	54	675	0.08 (≈ 0.215 µM)	77	1.5	67 ± 5.5	–
COc1cc([C@H](C)C#Cc2c(C)nc(N)nc2N)cc(OC)c1OC [138(S), 2,4-Diamino-5-((S)-3-(3,4,5-trimethoxyphenyl)but-1-ynyl)-6-methylpyrimidine]	–	–	–	–	–	–	–	–	–	–	–	IC50 [10]: < 100 µM; IC50 [11]: < 100 µM
CCc1nc(N)nc(N)c1C#CCc1cccc(-c2ccccc2)c1 [Compound 143]	45	0.71 (≈ 2.16 µM)	290 ± 36	11	26 ± 1.7	32	842	0.04 (≈ 0.122 µM)	–	10	28 ± 1.7	–
CCc1nc(N)nc(N)c1C#CCc1cc(-c2ccncc2)ccc1OC [Compound 149]	>20,000	0.01 (≈ 0.0278 µM)	330 ± 12	17	19 ± 1.3	217	3,867	0.09 (≈ 0.25 µM)	199	16	21 ± 1	–
COc1ccc(-c2ccccc2)cc1C(C)C#Cc1c(C)nc(N)nc1N (stereo not shown) [Compound 145]	53	0.716 (≈ 2 µM)	97 ± 10	4	23 ± 1.5	38	950	0.04 (≈ 0.112 µM)	94	1.3	75 ± 4	–
COc1cc(C(C)C#Cc2c(C)nc(N)nc2N)cc(N2C[C@@H](C)O[C@@H](C)C2)c1 (mixture of isomers) [Compound 156]	–	–	–	–	–	–	–	–	–	–	–	MIC (Cg) [8]: 6.3 µg/mL (≈ 15.9 µM); Selectivity Index ([8]; IC50 (MCF-10)/MIC (C. glabrata)): 108; MIC C. glabrata [8]: 2.9 µg/mL (≈ 7.33 µM); IC50 [2, 13]: 330 ± 6 nM; Selectivity ([9]; Table 7, hDHFR vs CgDHFR): 4.9 ± 0.4; IC50 [9]: 68 ± 5 nM; IC50 ([4]; Table 8): 314 µM; IC50 ([6]; Table 8): 193 µM
CCc1nc(N)nc(N)c1C#CCc1cc(-c2ccccc2)ccc1OC [Compound 142]	372	0.18 (≈ 0.502 µM)	300 ± 10	51	5.9 ± 0.2	67	11,167	0.006 (≈ 0.0167 µM)	–	125	2.4 ± 0.2	improvement in potency against S. aureus DHFR ([7]; relative to compound 140): 18 fold
CCc1nc(N)nc(N)c1C#CCc1cccc(-c2cncnc2)c1 [Compound 155]	3,333	0.15 (≈ 0.454 µM)	160 ± 13	7	23 ± 1.2	> 500	26,316	0.019 (≈ 0.0575 µM)	–	5	35 ± 1.1	–
CCc1nc(N)nc(N)c1C#CCc1cc(OC)cc(-c2ccccc2)c1 [Compound 144]	2500	0.08 (≈ 0.223 µM)	140 ± 1	3	52 ± 1.7	199	603	0.33 (≈ 0.921 µM)	–	2.4	59 ± 2.3	–
CCc1nc(N)nc(N)c1C#CCc1cccc(-c2cccnc2)c1 [Compound 154]	>20,000	0.041 (≈ 0.124 µM)	290 ± 15	6	47 ± 4.6	> 500	>20,000	0.08 (≈ 0.243 µM)	> 500	9	33 ± 0.5	–
